Assay results published in PubChem BioAssay (NCI).
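Abbreviation: GI50, concentration required for 50% inhibition of growth. TGI denotes the concentration required for complete inhibition of growth.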

Legend:
Experiment in all cases: growth of human tumour cells (NCI), 384-well format
UACC-257 melanoma = tested on: UACC-257 melanoma
RXF 393 renal = tested on: RXF 393 renal
786-0 renal = tested on: 786-0 renal
NCI-H322M lung = tested on: NCI-H322M lung
HL-60(TB) leukemia = tested on: HL-60(TB) leukemia
EKVX NSCLC = tested on: EKVX NSCLC
OVCAR-3 ovarian = tested on: OVCAR-3 ovarian
M14 melanoma = tested on: M14 melanoma
SN12C renal = tested on: SN12C renal
HS 578T breast = tested on: HS 578T breast
SR leukemia = tested on: SR leukemia
CAKI-1 renal = tested on: CAKI-1 renal
MDA-MB-435 melanoma = tested on: MDA-MB-435 melanoma
OVCAR-8 ovarian = tested on: OVCAR-8 ovarian
MDA-MB-231 breast = tested on: MDA-MB-231 breast
SNB-75 CNS = tested on: SNB-75 CNS
SNB-19 CNS = tested on: SNB-19 CNS
HT29 colon = tested on: HT29 colon
SK-MEL-5 melanoma = tested on: SK-MEL-5 melanoma
HCT-15 colon = tested on: HCT-15 colon
SF-295 CNS = tested on: SF-295 CNS
DU-145 prostate = tested on: DU-145 prostate
A549 NSCLC = tested on: A549 NSCLC
T-47D breast = tested on: T-47D breast
MOLT-4 leukemia = tested on: MOLT-4 leukemia
SK-MEL-2 melanoma = tested on: SK-MEL-2 melanoma
UO-31 renal = tested on: UO-31 renal
SF-539 CNS = tested on: SF-539 CNS
SW-620 colon = tested on: SW-620 colon
HOP-62 NSCLC = tested on: HOP-62 NSCLC
BT-549 breast = tested on: BT-549 breast
OVCAR-5 ovarian = tested on: OVCAR-5 ovarian
NCI-H23 lung = tested on: NCI-H23 lung
SK-MEL-28 melanoma = tested on: SK-MEL-28 melanoma
MCF7 breast = tested on: MCF7 breast
IGROV1 ovarian = tested on: IGROV1 ovarian
NCI-H460 NSCLC = tested on: NCI-H460 NSCLC
K-562 leukemia = tested on: K-562 leukemia
OVCAR-4 ovarian = tested on: OVCAR-4 ovarian
NCI-H226 lung = tested on: NCI-H226 lung
COLO 205 colon = tested on: COLO 205 colon
TK-10 renal = tested on: TK-10 renal
MALME-3M melanoma = tested on: MALME-3M melanoma
SF-268 CNS = tested on: SF-268 CNS
SK-OV-3 ovarian = tested on: SK-OV-3 ovarian
HCT-116 colon = tested on: HCT-116 colon
U251 glioblastoma = tested on: U251 glioblastoma
NCI-H522 lung = tested on: NCI-H522 lung
UACC-62 melanoma = tested on: UACC-62 melanoma
ACHN renal = tested on: ACHN renal
A498 renal = tested on: A498 renal
HOP-92 NSCLC = tested on: HOP-92 NSCLC
MDA-MB-468 breast = tested on: MDA-MB-468 breast
KM12 colon = tested on: KM12 colon
PC-3 prostate = tested on: PC-3 prostate

SMILES: CCOC(=O)[C@@H](N)CCC(=O)N[C@@H](CSCc1ccccc1)C(=O)N[C@@H](C(=O)OCC)c1ccccc1
- GI50 (UACC-257 melanoma): 16.9 µM
- TGI (UACC-257 melanoma): 30.6 µM
- GI50 (RXF 393 renal): 10.8 µM
- TGI (RXF 393 renal): 22.7 µM
- GI50 ([…]-0 renal): 12.3 µM
- TGI (786-0 renal): 24.8 µM
- GI50 (NCI-H322M lung): 18.1 µM
- TGI (NCI-H322M lung): 60 µM
- GI50 (HL-60(TB) leukemia): 18.5 µM
- TGI (HL-60(TB) leukemia): 32.6 µM
- GI50 (EKVX NSCLC): 20.4 µM
- TGI (EKVX NSCLC): 43.6 µM
- GI50 (OVCAR-3 ovarian): 13.5 µM
- TGI (OVCAR-3 ovarian): 26.4 µM
- GI50 (M14 melanoma): 16.8 µM
- TGI (M14 melanoma): 30.4 µM
- GI50 (SN12C renal): 15 µM
- TGI (SN12C renal): 28.3 µM
- GI50 (HS 578T breast): 15.3 µM
- TGI (HS 578T breast): 28.6 µM
- GI50 (SR leukemia): 1.82 µM
- TGI (SR leukemia): 3.43 µM
- GI50 (CAKI-1 renal): 8.03 µM
- TGI (CAKI-1 renal): 20.4 µM
- GI50 (MDA-MB-435 melanoma): 17.3 µM
- TGI (MDA-MB-435 melanoma): 31.2 µM
- GI50 (OVCAR-8 ovarian): 10.8 µM
- TGI (OVCAR-8 ovarian): 22.8 µM
- GI50 (MDA-MB-231 breast): 11.9 µM
- TGI (MDA-MB-231 breast): 24.2 µM
- GI50 (SNB-75 CNS): 12.2 µM
- TGI (SNB-75 CNS): 24.7 µM
- GI50 (SNB-19 CNS): 15.7 µM
- TGI (SNB-19 CNS): 30.3 µM
- GI50 (HT29 colon): 8.24 µM
- TGI (HT29 colon): 20.7 µM
- GI50 (SK-MEL-5 melanoma): 15.3 µM
- TGI (SK-MEL-5 melanoma): 29 µM
- GI50 (HCT-15 colon): 20.1 µM
- TGI (HCT-15 colon): 40.8 µM
- GI50 (SF-295 CNS): 13.1 µM
- TGI (SF-295 CNS): 26.1 µM
- GI50 (DU-145 prostate): 19.2 µM
- TGI (DU-145 prostate): 45.3 µM
- GI50 (A549 NSCLC): 25.3 µM
- TGI (A549 NSCLC): > 100 µM
- GI50 (T-47D breast): 15.5 µM
- TGI (T-47D breast): 29 µM
- GI50 (MOLT-4 leukemia): 2.01 µM
- TGI (MOLT-4 leukemia): 3.57 µM
- GI50 (SK-MEL-2 melanoma): 15.5 µM
- TGI (SK-MEL-2 melanoma): 29 µM
- GI50 (UO-31 renal): 38.6 µM
- TGI (UO-31 renal): > 100 µM
- GI50 (SF-539 CNS): 12.5 µM
- TGI (SF-539 CNS): 25.1 µM
- GI50 (SW-620 colon): 9.33 µM
- TGI (SW-620 colon): 21.4 µM
- GI50 (HOP-62 NSCLC): 9.1 µM
- TGI (HOP-62 NSCLC): 24 µM
- GI50 (BT-549 breast): 17.5 µM
- TGI (BT-549 breast): 31.3 µM
- GI50 (OVCAR-5 ovarian): 32.3 µM
- TGI (OVCAR-5 ovarian): > 100 µM
- GI50 (NCI-H23 lung): 16.2 µM
- TGI (NCI-H23 lung): 32.5 µM
- GI50 (SK-MEL-28 melanoma): 16.5 µM
- TGI (SK-MEL-28 melanoma): 30.1 µM
- GI50 (MCF7 breast): 5.51 µM
- TGI (MCF7 breast): 19 µM
- GI50 (IGROV1 ovarian): 13 µM
- TGI (IGROV1 ovarian): 25.9 µM
- GI50 (NCI-H460 NSCLC): 7.59 µM
- TGI (NCI-H460 NSCLC): 20.1 µM
- GI50 (K-562 leukemia): 10.6 µM
- TGI (K-562 leukemia): 22.7 µM
- GI50 (OVCAR-4 ovarian): 16 µM
- TGI (OVCAR-4 ovarian): 31.4 µM
- GI50 (NCI-H226 lung): 11.8 µM
- TGI (NCI-H226 lung): 25.6 µM
- GI50 (COLO 205 colon): 11.5 µM
- TGI (COLO 205 colon): 23.8 µM
- GI50 (TK-10 renal): 14.5 µM
- TGI (TK-10 renal): 27.9 µM
- GI50 (MALME-3M melanoma): 16.4 µM
- TGI (MALME-3M melanoma): 30.1 µM
- GI50 (SF-268 CNS): 10.5 µM
- TGI (SF-268 CNS): 22.4 µM
- GI50 (SK-OV-3 ovarian): 13.9 µM
- TGI (SK-OV-3 ovarian): 26.9 µM
- GI50 (HCT-116 colon): 5.21 µM
- TGI (HCT-116 colon): 17 µM
- GI50 (U251 glioblastoma): 11.2 µM
- TGI (U251 glioblastoma): 23.5 µM
- GI50 (NCI-H522 lung): 14.4 µM
- TGI (NCI-H522 lung): 27.6 µM
- GI50 (UACC-62 melanoma): 10.5 µM
- TGI (UACC-62 melanoma): 22.4 µM
- GI50 (ACHN renal): 8.55 µM
- TGI (ACHN renal): 20.9 µM
- GI50 (A498 renal): 11.6 µM
- TGI (A498 renal): 24.1 µM
- GI50 (HOP-92 NSCLC): 10.4 µM
- TGI (HOP-92 NSCLC): 22.2 µM
- GI50 (MDA-MB-468 breast): 5.45 µM
- TGI (MDA-MB-468 breast): 17.2 µM
- GI50 (KM12 colon): 6.17 µM
- TGI (KM12 colon): 18.5 µM
- GI50 (PC-3 prostate): 14.8 µM
- TGI (PC-3 prostate): 28.1 µM
